Experiment [1] addresses Mitogen-activated protein kinase 11 (Homo sapiens, UniProt Q15759). Conditions: Compound concentration 100.0 nM.
Experiment [2] concerns the target Serine/threonine-protein kinase B-raf (Homo sapiens, UniProt P15056). In words: NanoBRET (SGC-Frankfurt) (BRAF).
In experiment [3] the target is Serine/threonine-protein kinase 38-like (Homo sapiens, UniProt Q9Y2H1). In words: NanoBRET (SGC-Frankfurt) (STK38L). (BRET reads energy transfer from a luciferase to a nearby fluorophore.)
Experiment [4] deals with 5-hydroxytryptamine receptor 2A (Homo sapiens) (UniProt P28223). Conditions: Compound concentration 10.0 uM.
In experiment [5] the target is 5-hydroxytryptamine receptor 2B (Homo sapiens) (UniProt P41595). To be noted: Compound concentration 10.0 uM.
For experiment [6], the target named is 5-hydroxytryptamine receptor 3A (Homo sapiens) (UniProt P46098). To be noted: Compound concentration 10.0 uM.
Experiment [7] addresses D(1B) dopamine receptor (Homo sapiens) (UniProt P21918). Conditions: Compound concentration 10.0 uM.
In experiment [8] the target is Sodium-dependent serotonin transporter (Homo sapiens) (UniProt P31645). Conditions: Compound concentration 10.0 uM.
In experiment [9] the target is Delta-type opioid receptor (Homo sapiens) (UniProt P41143). Conditions: Compound concentration 10.0 uM.
Experiment [10] addresses Kappa-type opioid receptor (Homo sapiens) (UniProt P41145). Conditions: Compound concentration 10.0 uM.
In experiment [11] the target is Alpha-1A adrenergic receptor (Homo sapiens) (UniProt P35348). Conditions: Compound concentration 10.0 uM.
Experiment [12] addresses Alpha-2B adrenergic receptor (Homo sapiens) (UniProt P18089). To be noted: Compound concentration 10.0 uM.
Experiment [13] deals with Muscarinic acetylcholine receptor M2 (Homo sapiens) (UniProt P08172). To be noted: Compound concentration 10.0 uM.
The target of experiment [14] is GABA-A receptor; anion channel (Rattus norvegicus) (UniProt O09028+P15431+P18506+P18508+P19969+P20236+P23574+P23576+P28471+P28473+P30191+P62813+P63079+P63138+Q91ZM7+Q9ES14). Conditions: Compound concentration 10.0 uM.
For a further experiment, the species on record is Rattus norvegicus. Conditions: Compound concentration 10.0 uM.

Usually IC50 stands for the concentration at which inhibition is half-maximal. For orientation: inhibition means the change of the read-out against control, counted positive when it falls.

Sequence of 5-hydroxytryptamine receptor 2B (Homo sapiens) (P41595 whole entry): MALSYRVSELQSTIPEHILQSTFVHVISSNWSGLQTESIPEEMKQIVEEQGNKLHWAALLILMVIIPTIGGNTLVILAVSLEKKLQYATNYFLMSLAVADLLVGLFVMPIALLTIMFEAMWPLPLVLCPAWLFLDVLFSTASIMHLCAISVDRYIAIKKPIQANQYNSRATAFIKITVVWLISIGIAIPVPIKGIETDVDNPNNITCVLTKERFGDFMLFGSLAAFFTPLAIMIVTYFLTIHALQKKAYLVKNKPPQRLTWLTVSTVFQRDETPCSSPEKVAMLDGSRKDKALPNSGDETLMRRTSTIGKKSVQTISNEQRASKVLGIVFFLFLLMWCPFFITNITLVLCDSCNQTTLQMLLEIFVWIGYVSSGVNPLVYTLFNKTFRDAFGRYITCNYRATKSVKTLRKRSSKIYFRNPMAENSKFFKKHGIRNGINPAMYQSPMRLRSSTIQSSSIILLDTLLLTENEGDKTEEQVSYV
Sequence of Delta-type opioid receptor (Homo sapiens) (P41143 whole entry): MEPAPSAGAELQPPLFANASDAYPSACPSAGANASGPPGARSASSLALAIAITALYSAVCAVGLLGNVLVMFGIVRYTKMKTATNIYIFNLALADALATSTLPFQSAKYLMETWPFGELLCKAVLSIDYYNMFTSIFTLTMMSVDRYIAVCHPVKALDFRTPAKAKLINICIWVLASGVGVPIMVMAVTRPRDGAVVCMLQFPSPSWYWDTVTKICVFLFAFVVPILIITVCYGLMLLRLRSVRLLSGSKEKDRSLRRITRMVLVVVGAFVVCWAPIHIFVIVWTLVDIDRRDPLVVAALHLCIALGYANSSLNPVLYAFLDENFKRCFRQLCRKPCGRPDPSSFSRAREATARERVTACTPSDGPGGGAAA
Sequence of D(1B) dopamine receptor (Homo sapiens) (P21918 whole entry): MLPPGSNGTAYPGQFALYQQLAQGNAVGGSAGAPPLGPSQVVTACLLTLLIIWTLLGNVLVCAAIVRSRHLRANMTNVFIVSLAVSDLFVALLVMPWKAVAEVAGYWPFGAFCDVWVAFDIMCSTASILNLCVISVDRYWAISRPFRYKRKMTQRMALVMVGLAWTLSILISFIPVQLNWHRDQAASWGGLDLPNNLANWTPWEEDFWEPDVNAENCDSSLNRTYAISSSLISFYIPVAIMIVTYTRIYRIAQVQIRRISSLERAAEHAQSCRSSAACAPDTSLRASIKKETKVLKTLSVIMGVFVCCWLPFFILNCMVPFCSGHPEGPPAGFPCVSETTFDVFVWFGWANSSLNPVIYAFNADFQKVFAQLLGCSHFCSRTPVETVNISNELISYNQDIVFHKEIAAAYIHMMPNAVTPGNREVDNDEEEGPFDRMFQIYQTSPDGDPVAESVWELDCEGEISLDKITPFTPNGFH
Sequence of Kappa-type opioid receptor (Homo sapiens) (P41145 whole entry): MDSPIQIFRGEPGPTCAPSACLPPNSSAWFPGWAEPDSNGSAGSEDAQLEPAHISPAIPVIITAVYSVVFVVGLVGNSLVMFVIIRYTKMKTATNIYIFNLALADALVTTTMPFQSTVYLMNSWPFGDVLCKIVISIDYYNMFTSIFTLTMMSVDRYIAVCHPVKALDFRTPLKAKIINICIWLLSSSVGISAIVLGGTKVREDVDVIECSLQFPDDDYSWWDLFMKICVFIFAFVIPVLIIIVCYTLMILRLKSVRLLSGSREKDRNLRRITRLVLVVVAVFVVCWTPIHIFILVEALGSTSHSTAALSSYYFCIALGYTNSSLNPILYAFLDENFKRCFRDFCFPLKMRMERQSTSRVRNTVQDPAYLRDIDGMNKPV
Sequence of Serine/threonine-protein kinase 38-like (Q9Y2H1 whole entry): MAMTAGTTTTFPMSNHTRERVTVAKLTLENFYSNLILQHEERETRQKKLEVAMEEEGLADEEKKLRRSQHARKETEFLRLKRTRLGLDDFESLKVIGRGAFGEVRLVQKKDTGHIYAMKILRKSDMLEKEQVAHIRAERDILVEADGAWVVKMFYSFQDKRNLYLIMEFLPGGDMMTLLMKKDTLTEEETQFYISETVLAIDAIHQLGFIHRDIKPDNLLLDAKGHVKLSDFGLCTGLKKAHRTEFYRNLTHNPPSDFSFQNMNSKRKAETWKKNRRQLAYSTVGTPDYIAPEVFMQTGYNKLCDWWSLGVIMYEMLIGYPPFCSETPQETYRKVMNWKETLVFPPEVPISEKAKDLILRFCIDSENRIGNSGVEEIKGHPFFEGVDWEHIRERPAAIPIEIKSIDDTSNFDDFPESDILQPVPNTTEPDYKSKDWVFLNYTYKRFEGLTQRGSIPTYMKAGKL
Sequence of Mitogen-activated protein kinase 11 (Q15759 whole entry): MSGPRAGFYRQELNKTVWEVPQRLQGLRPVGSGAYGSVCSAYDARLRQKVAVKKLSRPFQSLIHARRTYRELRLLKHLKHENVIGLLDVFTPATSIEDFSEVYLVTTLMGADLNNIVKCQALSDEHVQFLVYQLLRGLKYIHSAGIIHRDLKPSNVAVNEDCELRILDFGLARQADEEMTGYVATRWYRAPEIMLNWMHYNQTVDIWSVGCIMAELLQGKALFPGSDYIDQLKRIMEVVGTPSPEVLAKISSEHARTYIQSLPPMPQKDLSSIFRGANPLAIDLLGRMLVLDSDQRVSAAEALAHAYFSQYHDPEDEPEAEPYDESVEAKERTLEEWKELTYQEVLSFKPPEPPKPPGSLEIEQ
Sequence of Sodium-dependent serotonin transporter (Homo sapiens) (P31645 whole entry, looked up): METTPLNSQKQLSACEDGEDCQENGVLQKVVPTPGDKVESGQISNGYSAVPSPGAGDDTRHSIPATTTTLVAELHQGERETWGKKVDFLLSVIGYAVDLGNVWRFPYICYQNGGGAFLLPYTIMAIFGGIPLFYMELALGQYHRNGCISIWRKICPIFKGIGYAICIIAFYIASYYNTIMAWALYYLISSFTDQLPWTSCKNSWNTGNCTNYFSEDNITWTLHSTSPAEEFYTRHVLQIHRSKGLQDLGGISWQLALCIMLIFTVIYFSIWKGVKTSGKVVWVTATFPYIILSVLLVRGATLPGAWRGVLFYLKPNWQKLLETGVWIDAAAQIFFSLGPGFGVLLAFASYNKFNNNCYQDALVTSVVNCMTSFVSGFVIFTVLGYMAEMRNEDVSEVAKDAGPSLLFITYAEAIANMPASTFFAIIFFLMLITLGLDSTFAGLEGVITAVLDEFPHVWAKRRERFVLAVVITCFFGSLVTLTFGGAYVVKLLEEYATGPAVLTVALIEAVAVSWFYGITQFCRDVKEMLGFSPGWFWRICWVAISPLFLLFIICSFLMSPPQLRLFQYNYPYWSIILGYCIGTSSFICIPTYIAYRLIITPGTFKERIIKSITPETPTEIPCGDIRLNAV
Sequence of Alpha-1A adrenergic receptor (Homo sapiens) (P35348 whole entry): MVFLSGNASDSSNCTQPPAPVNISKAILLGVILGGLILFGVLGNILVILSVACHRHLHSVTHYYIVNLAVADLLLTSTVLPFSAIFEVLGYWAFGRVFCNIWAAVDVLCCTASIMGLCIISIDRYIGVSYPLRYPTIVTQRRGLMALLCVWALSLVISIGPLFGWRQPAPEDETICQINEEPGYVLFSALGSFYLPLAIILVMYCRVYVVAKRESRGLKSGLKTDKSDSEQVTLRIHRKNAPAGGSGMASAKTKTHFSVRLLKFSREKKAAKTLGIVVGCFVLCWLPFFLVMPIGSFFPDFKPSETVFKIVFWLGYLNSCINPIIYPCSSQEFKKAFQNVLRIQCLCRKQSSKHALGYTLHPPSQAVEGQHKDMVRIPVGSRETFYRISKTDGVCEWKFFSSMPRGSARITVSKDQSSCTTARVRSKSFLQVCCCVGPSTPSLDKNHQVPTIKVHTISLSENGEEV
Sequence of Muscarinic acetylcholine receptor M2 (Homo sapiens) (P08172 whole entry): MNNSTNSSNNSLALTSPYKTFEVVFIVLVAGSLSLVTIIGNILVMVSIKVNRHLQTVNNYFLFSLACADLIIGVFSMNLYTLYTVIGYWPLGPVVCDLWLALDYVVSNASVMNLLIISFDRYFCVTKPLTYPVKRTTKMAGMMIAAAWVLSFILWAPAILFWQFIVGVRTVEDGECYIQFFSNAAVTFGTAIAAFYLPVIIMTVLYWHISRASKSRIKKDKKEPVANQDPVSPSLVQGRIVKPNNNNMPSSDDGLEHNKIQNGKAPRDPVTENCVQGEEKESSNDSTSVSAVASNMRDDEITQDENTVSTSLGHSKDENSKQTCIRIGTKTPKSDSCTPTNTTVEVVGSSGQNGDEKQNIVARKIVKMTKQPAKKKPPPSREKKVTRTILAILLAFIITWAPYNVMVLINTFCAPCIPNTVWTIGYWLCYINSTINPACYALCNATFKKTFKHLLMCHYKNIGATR
Sequence of 5-hydroxytryptamine receptor 3A (Homo sapiens) (P46098 whole entry): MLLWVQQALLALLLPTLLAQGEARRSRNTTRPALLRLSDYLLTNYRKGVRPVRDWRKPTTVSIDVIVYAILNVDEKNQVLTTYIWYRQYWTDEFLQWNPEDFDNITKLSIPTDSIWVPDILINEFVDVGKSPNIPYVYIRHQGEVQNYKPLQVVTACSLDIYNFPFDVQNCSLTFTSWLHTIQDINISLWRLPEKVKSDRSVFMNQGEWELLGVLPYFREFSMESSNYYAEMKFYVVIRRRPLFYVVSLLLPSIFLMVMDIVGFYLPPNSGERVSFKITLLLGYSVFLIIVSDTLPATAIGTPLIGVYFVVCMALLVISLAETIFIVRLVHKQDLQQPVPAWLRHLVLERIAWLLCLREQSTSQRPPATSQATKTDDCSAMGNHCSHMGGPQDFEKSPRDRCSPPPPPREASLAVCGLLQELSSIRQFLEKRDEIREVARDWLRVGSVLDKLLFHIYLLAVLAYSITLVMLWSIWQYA

Regarding `CS(=O)(=O)N1CCCC(NC(=O)[C@H](CCC2CCCCC2)NC(=O)c2ccc(CNc3ncnc4c3nnn4-c3ccccc3)cc2)C1` (stereo not given in full) [SR-301], the residual activity in [1] was 100%.
For the molecule `CS(=O)(=O)N1CCCC(NC(=O)[C@H](CCC2CCCCC2)NC(=O)c2ccc(CNC(=O)c3cnc4ccccn34)cc2)C1` (stereo not given in full) [SR-302], the IC50 in [2] and in experiment [3] was above 25 µM throughout. Besides, the inhibition was 3.03% in [4]; 12.2% in experiment [5]; 3.83% in experiment [6]; 23.5% in experiment [7]; 19.8% in [8]; 8.18% in [9]. In addition, the inhibition in experiment [10] is 20.1%; in experiment [11], 34.9%; in [12], 13.5%; in experiment [13], 18.5%; in experiment [14] it was 15.8%; in the experiment listed under Rattus norvegicus, 13.2%.

(Values after ChEMBL document CHEMBL4507324 (2021).)
